Experiment [1] has as its target T1, CaM-activated PDE1 (Ca2+-CaM-phosphodiesterase 1).
T1 construct: bovine brain PDE (Sigma-Aldrich P9529); with calmodulin (CaM)
Kind of experiment: PDE-Glo luminescence assay of CaM-activated PDE; supported by fluorescence quenching of the CaM-Ca2+-PDE system. It counts as biochemical, Bos taurus.

The target is the same in experiment [2]. The experiment in a line: PDE-Glo luminescence assay of CaM-activated PDE. The experiment is classed as biochemical, Bos taurus.

Data on 2 molecules can be found in article PMC3344907, “Inhibitory Effects and Underlying Mechanism of 7-Hydroxyflavone Phosphate Ester in HeLa Cells” (PLoS ONE, 2012).

SMILES strings stand for the structures.

For the molecule `CCOP(=O)(OCC)Oc1ccc2c(=O)cc(-c3ccccc3)oc2c1` [FP, diethyl flavon-7-yl phosphate], in experiment [1], the midpoint of inhibition, the IC50, lay at 22.3 µM.

With `O=c1cc(-c2ccccc2)oc2cc(O)ccc12` [HF, 7-hydroxyflavone], it took 76.7 µM to reach half-maximal inhibition in experiment [2] (IC50).
